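Where inhibition never reached the appropriate level, the endpoint shown equals the highest concentration tested. Otherwise, values were interpolated linearly from a five-concentration, 48-hour dose response in 96-well plates. GI50 is the concentration that inhibits growth by half. Definition used: TGI = concentration required for complete inhibition of growth.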
What was measured:
Experiment in all cases: NCI anticancer screen, dose series, 48 h
CAKI-1 renal = test system: CAKI-1 renal
MDA-MB-231 breast = test system: MDA-MB-231 breast
CCRF-CEM leukemia = test system: CCRF-CEM leukemia
OVCAR-5 ovarian = test system: OVCAR-5 ovarian
NCI-H460 lung = test system: NCI-H460 lung
EKVX NSCLC = test system: EKVX NSCLC
MALME-3M melanoma = test system: MALME-3M melanoma
HL-60(TB) leukemia = test system: HL-60(TB) leukemia
SN12C renal = test system: SN12C renal
U251 CNS = test system: U251 CNS
COLO 205 colon = test system: COLO 205 colon
SR leukemia = test system: SR leukemia
PC-3 prostate = test system: PC-3 prostate
SNB-75 CNS = test system: SNB-75 CNS
SF-268 CNS = test system: SF-268 CNS
HCT-15 colon = test system: HCT-15 colon
OVCAR-4 ovarian = test system: OVCAR-4 ovarian
SK-MEL-2 melanoma = test system: SK-MEL-2 melanoma
SK-OV-3 ovarian = test system: SK-OV-3 ovarian
HOP-92 NSCLC = test system: HOP-92 NSCLC
786-0 renal = test system: 786-0 renal
SK-MEL-28 melanoma = test system: SK-MEL-28 melanoma
NCI-H226 lung = test system: NCI-H226 lung
HCC-2998 colon = test system: HCC-2998 colon
A498 renal = test system: A498 renal
MDA-MB-435 = test system: MDA-MB-435
SNB-19 CNS = test system: SNB-19 CNS
TK-10 renal = test system: TK-10 renal
OVCAR-3 ovarian = test system: OVCAR-3 ovarian
K-562 leukemia = test system: K-562 leukemia

SMILES: Cc1ccc(-c2ccc(SCC(=O)Nc3ccc(S(N)(=O)=O)cc3Br)nn2)cc1
- GI50 (CAKI-1 renal): 12.3 µM
- TGI (CAKI-1 renal): 28.5 µM
- GI50 (MDA-MB-231 breast): 4.19 µM
- TGI (MDA-MB-231 breast): 15.5 µM
- GI50 (CCRF-CEM leukemia): > 100 µM
- TGI (CCRF-CEM leukemia): > 100 µM
- GI50 (OVCAR-5 ovarian): 15 µM
- TGI (OVCAR-5 ovarian): 32.4 µM
- GI50 (NCI-H460 lung): 10.3 µM
- TGI (NCI-H460 lung): 29 µM
- GI50 (EKVX NSCLC): 15.5 µM
- TGI (EKVX NSCLC): 31.3 µM
- GI50 (MALME-3M melanoma): 13.7 µM
- TGI (MALME-3M melanoma): 28.8 µM
- GI50 (HL-60(TB) leukemia): > 100 µM
- TGI (HL-60(TB) leukemia): > 100 µM
- GI50 (SN12C renal): 23.8 µM
- TGI (SN12C renal): 60 µM
- GI50 (U251 CNS): 6.17 µM
- TGI (U251 CNS): 24 µM
- GI50 (COLO 205 colon): 17.4 µM
- TGI (COLO 205 colon): 41.2 µM
- GI50 (SR leukemia): 60.4 µM
- TGI (SR leukemia): > 100 µM
- GI50 (PC-3 prostate): 5.64 µM
- TGI (PC-3 prostate): 22.5 µM
- GI50 (SNB-75 CNS): 13.6 µM
- TGI (SNB-75 CNS): 37.1 µM
- GI50 (SF-268 CNS): 18.4 µM
- TGI (SF-268 CNS): 48.9 µM
- GI50 (HCT-15 colon): 11.3 µM
- TGI (HCT-15 colon): 23.4 µM
- GI50 (OVCAR-4 ovarian): 14.1 µM
- TGI (OVCAR-4 ovarian): 35 µM
- GI50 (SK-MEL-2 melanoma): 16.4 µM
- TGI (SK-MEL-2 melanoma): 35.3 µM
- GI50 (SK-OV-3 ovarian): 15.1 µM
- TGI (SK-OV-3 ovarian): 29.3 µM
- GI50 (HOP-92 NSCLC): 2.97 µM
- TGI (HOP-92 NSCLC): 13.5 µM
- GI50 (786-0 renal): 16.4 µM
- TGI (786-0 renal): 47 µM
- GI50 (SK-MEL-28 melanoma): 13.4 µM
- TGI (SK-MEL-28 melanoma): 27 µM
- GI50 (NCI-H226 lung): 7.32 µM
- TGI (NCI-H226 lung): 24.7 µM
- GI50 (HCC-2998 colon): 11.5 µM
- TGI (HCC-2998 colon): 28.1 µM
- GI50 (A498 renal): 19.3 µM
- TGI (A498 renal): 34.4 µM
- GI50 (MDA-MB-435): 25.4 µM
- TGI (MDA-MB-435): > 100 µM
- GI50 (SNB-19 CNS): 11.3 µM
- TGI (SNB-19 CNS): 23.3 µM
- GI50 (TK-10 renal): 17.6 µM
- TGI (TK-10 renal): 39.5 µM
- GI50 (OVCAR-3 ovarian): 16.9 µM
- TGI (OVCAR-3 ovarian): 32.4 µM
- GI50 (K-562 leukemia): 36.3 µM

From PubChem BioAssay (NCI)
